Test results as given in ChEMBL document CHEMBL1152959, “Design, synthesis and dopamine D4 receptor binding activities of new N-heteroaromatic 5/6-ring Mannich bases” (Bioorg Med Chem, 2009).
pKi: −log10 of the molar value.

What was measured:
[1] = molecular target: T1, D(4) dopamine receptor (Homo sapiens) (UniProt P21917); assay: Displacement of [3H]spiperone from human cloned dopamine D4.4 receptor expressed in CHO cells at 100 nM; assay type: cell-based
T1 sequence (whole entry): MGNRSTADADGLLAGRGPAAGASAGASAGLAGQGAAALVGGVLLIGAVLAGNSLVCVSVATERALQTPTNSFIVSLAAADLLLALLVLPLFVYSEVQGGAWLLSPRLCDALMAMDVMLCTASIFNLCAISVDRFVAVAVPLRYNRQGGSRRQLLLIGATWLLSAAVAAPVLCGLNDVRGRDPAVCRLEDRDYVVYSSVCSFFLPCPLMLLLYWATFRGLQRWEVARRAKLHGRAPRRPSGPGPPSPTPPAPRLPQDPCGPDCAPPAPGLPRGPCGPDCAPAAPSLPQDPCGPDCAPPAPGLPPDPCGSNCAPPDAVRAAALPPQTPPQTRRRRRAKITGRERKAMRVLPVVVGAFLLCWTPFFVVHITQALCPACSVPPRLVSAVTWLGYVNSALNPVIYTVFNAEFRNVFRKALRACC

D(2) dopamine receptor [2] = molecular target: T2, D(2) dopamine receptor (Homo sapiens, UniProt P14416); assay: Displacement of [3H]spiperone from human cloned dopamine D2 long receptor expressed in CHO cells at 100 nM; assay type: cell-based
[3] = molecular target: D(1A) dopamine receptor (Sus scrofa) (UniProt P50130); assay: Displacement of [3H]SCH23390 from pig dopamine D1 receptor at 100 nM
D(2) dopamine receptor [4] = molecular target: T2, D(2) dopamine receptor; assay: biochemical
Description: Displacement of [3H]SCH23390 from human cloned dopamine D2 long receptor expressed in CHO cells

D(4) dopamine receptor = molecular target: T3, D(4) dopamine receptor (Homo sapiens, UniProt P21917); assay: Displacement of [3H]spiroperidol from human cloned dopamine D4.4 receptor expressed in CHO cells; assay type: cell-based
T3 sequence (P21917 whole entry): T1 sequence (whole entry)

D(2) dopamine receptor [5] = molecular target: T2, D(2) dopamine receptor; assay: biochemical; remark: listed apart in the source
Description: Displacement of [3H]spiroperidol from human cloned dopamine D2 short receptor expressed in CHO cells

D(1A) dopamine receptor = D(1A) dopamine receptor (Bos taurus, UniProt Q95136)
Description: Displacement of [3H]SCH23390 from bovine dopamine D1 receptor

D(3) dopamine receptor = D(3) dopamine receptor (Homo sapiens, UniProt P35462); assay: biochemical
D(3) dopamine receptor, sequence (P35462 whole entry): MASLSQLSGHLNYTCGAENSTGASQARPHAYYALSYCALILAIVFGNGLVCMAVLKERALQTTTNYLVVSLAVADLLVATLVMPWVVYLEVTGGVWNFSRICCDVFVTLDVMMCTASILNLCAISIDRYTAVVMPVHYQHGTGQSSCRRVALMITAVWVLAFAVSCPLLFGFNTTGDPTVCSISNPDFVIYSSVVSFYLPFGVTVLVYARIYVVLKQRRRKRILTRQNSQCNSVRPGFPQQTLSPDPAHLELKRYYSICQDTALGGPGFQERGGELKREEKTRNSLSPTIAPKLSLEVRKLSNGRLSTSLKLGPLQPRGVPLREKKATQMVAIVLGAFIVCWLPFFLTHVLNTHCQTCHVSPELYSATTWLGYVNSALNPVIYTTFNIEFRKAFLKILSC
Description: Displacement of [3H]spiroperidol from human cloned dopamine D3 receptor expressed in CHO cells

D(1A) dopamine receptor, sequence (Q95136 whole entry): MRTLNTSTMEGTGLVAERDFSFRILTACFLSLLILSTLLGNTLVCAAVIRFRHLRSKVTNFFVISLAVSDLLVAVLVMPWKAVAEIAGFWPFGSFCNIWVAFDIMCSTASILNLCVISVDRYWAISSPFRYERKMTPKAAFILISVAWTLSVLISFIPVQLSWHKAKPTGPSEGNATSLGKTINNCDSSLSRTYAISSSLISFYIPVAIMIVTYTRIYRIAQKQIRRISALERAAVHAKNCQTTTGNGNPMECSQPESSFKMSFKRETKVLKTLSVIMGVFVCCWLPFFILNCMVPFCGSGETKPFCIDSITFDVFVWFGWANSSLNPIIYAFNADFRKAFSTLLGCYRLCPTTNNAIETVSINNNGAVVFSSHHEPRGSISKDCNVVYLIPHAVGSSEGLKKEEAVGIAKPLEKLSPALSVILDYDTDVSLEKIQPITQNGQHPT
D(1A) dopamine receptor (Sus scrofa), sequence (P50130 whole entry): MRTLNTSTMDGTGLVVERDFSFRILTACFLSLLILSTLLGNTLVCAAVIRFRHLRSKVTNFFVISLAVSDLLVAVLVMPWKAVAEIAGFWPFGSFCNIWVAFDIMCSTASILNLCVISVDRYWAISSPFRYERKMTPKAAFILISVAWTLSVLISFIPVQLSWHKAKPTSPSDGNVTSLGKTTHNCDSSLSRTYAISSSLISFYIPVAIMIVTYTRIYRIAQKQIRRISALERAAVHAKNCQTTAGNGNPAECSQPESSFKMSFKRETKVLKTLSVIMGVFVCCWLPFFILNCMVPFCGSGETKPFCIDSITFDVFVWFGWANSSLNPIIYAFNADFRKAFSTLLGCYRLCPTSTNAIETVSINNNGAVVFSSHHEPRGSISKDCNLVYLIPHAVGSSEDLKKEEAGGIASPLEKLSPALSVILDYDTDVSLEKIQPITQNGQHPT
T2 sequence (P14416 whole entry): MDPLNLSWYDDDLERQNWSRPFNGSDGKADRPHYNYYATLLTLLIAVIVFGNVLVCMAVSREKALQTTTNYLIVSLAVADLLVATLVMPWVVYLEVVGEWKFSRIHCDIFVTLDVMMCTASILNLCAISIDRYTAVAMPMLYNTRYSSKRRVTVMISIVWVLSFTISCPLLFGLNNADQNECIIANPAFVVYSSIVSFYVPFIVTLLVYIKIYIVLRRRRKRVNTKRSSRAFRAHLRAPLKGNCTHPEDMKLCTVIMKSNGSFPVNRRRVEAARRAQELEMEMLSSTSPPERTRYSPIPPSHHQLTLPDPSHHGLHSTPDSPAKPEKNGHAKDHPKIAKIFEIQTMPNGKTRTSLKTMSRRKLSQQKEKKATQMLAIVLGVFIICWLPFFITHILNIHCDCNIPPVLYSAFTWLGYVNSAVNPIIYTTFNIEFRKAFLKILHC

Activity [1] [%] | Activity (D(2) dopamine receptor [2]) [%] | Activity [3] [%] | pKi (D(2) dopamine receptor [4]) | pKi (D(4) dopamine receptor) | pKi (D(2) dopamine receptor [5]) | pKi (D(1A) dopamine receptor) | pKi (D(3) dopamine receptor) | SMILES
0 | 0 | 0 | – | – | – | – | – | COc1ccccc1N1CCN(Cc2cnc3cc(C)ncn23)CC1
0 | 0 | 0 | – | – | – | – | – | Cc1cc2nc(C)c(CN3CCN(c4ccccc4)CC3)n2cn1
60 | 0 | 0 | 5.64 | 7.85 | 5.54 | 5.08 | 5.47 | COc1ccccc1N1CCN(Cc2c(C)nc3cc(C)nc(C)n23)CC1
– | – | – | 5.89 | 7.18 | 6.24 | 4.96 | 5.82 | COc1ccccc1N1CCN(Cc2cnc3cc(C)nc(C)n23)CC1
– | – | – | 4.77 | 6.92 | 5.00 | 4.66 | 6.19 | Cc1cc2nc(C)c(CN3CCN(c4ccccn4)CC3)n2c(C)n1
0 | 0 | 0 | – | – | – | – | – | COc1ccc(N2CCN(Cc3cnc4cc(C)nc(C)n34)CC2)cc1
20 | 0 | 0 | – | – | – | – | – | COc1cc2ncc(CN3CCN(c4ccccc4OC)CC3)n2c(OC)n1
60 | 20 | 20 | 6.89 | 8.62 | 6.77 | 5.08 | 6.02 | COc1ccccc1N1CCN(Cc2cc3c(=O)[nH]c(N(C)C)nc3[nH]2)CC1
0 | 0 | 0 | – | – | – | – | – | CCOC(=O)c1nc2cc(C)nc(C)n2c1CN1CCN(c2ccc(OC)cc2)CC1
0 | 0 | 0 | – | – | – | – | – | CCOC(=O)c1nc2cc(C)nc(C)n2c1CN1CCN(c2ccccc2OC)CC1
– | – | – | 5.33 | 6.44 | 5.46 | 4.92 | 4.66 | Cc1cc2nc(C)c(CN3CCN(c4ccc(F)cc4)CC3)n2c(C)n1
0 | 0 | 0 | – | – | – | – | – | Cc1cc2ncc(CN3CCN(c4ccccc4)CC3)n2c(C)n1
– | – | – | 4.59 | 7.18 | 4.24 | 5.15 | 5.51 | Cc1cc2nc(C)c(CN3CCN(c4ccc(Cl)cc4)CC3)n2c(C)n1

Second part, the compound before the results:

SMILES | Activity [1] [%] | Activity (D(2) dopamine receptor [2]) [%] | Activity [3] [%] | pKi (D(2) dopamine receptor [4]) | pKi (D(4) dopamine receptor) | pKi (D(2) dopamine receptor [5]) | pKi (D(1A) dopamine receptor) | pKi (D(3) dopamine receptor)
Cn1c(N2CCCC2)nc2c(CN3CCN(c4ccccc4)CC3)c[nH]c2c1=O | – | – | – | 6.41 | 8.42 | 6.74 | 6.60 | 6.48
Cc1cc2nc(C)c(CN3CCN(c4ccc(Cl)c(Cl)c4)CC3)n2cn1 | 20 | 0 | 0 | – | – | – | – | –
Cc1cc2nc(C)c(CN3CCN(c4ccccc4)CC3)n2c(C)n1 | – | – | – | 5.07 | 7.15 | 4.96 | 4.96 | 5.38
Cc1cc2nc(C)c(CN3CCN(c4ccccn4)CC3)n2cn1 | 40 | 0 | 0 | – | – | – | – | –
Cn1c(N2CCCC2)nc2c(CN3CCN(c4ccc(F)cc4)CC3)c[nH]c2c1=O | – | – | – | 6.08 | 7.80 | 6.40 | 6.80 | 6.20
Cc1cc2ncc(CN3CCN(c4ccccc4)CC3)n2cn1 | 20 | 0 | 0 | – | – | – | – | –
COc1ccccc1N1CCN(Cc2c(C)[nH]c3nc(N(C)C)ncc23)CC1 | 80 | 20 | 0 | 5.59 | 8.19 | 5.54 | 5.17 | 5.21
Cn1c(N2CCOCC2)nc2c(CN3CCN(c4ccccc4)CC3)c[nH]c2c1=O | – | – | – | 5.96 | 7.60 | 6.14 | 6.28 | 5.57
COc1ccc(N2CCN(Cc3c(C)[nH]c4nc(N(C)C)ncc34)CC2)cc1 | 0 | 0 | 0 | – | – | – | – | –
COc1ccccc1N1CCN(Cc2c(C)nc3cc(C)ncn23)CC1 | 20 | 0 | 0 | 4.40 | 7.41 | 4.28 | 4.23 | 4.17
COc1ccc(N2CCN(Cc3cnc4ccncn34)CC2)cc1 | 0 | 0 | 0 | – | – | – | – | –
Cc1cc2ncc(CN3CCN(c4ccc(Cl)cc4)CC3)n2cn1 | 0 | 0 | 0 | – | – | – | – | –
Cn1c(N2CCCC2)nc2c(CN3CCN(c4ccc(Cl)c(Cl)c4)CC3)c[nH]c2c1=O | – | – | – | 6.24 | 8.47 | 6.42 | 5.82 | 6.32
COc1ccc(N2CCN(Cc3cnc4cc(OC)nc(OC)n34)CC2)cc1 | 0 | 20 | 0 | – | – | – | – | –
COc1ccc(N2CCN(Cc3cnc4cc(C)ncn34)CC2)cc1 | 0 | 0 | 0 | – | – | – | – | –
Cc1cc2ncc(CN3CCN(c4ccccn4)CC3)n2cn1 | 0 | 0 | 0 | – | – | – | – | –
Cc1cc2nc(C)c(CN3CCN(c4ccc(Cl)c(Cl)c4)CC3)n2c(C)n1 | – | – | – | 5.48 | 7.68 | 5.26 | 5.68 | 5.89
Cc1cc2ncc(CN3CCN(c4ccc(Cl)cc4)CC3)n2c(C)n1 | 0 | 0 | 0 | – | – | – | – | –
Cn1c(N2CCCC2)nc2c(CN3CCN(c4ccccn4)CC3)c[nH]c2c1=O | – | – | – | 6.57 | 8.55 | 6.82 | 6.10 | 6.51
COc1ccc(N2CCN(Cc3c(C)nc4cc(C)nc(C)n34)CC2)cc1 | 0 | 0 | 0 | 6.59 | 6.02 | 6.80 | 5.18 | 8.07
COc1ccc(N2CCN(Cc3c(C)nc4cc(C)ncn34)CC2)cc1 | 60 | 0 | 0 | 5.04 | 7.92 | 4.89 | 4.57 | 4.89
Cc1cc2nc(C)c(CN3CCN(c4ccc(Cl)cc4)CC3)n2cn1 | 0 | 0 | 0 | – | – | – | – | –
Clc1nccc2c(CN3CCN(c4ccccc4)CC3)c[nH]c12 | – | – | – | 5.59 | 8.19 | 5.54 | 5.17 | 5.21
Cc1cc2ncc(CN3CCN(c4ccc(Cl)c(Cl)c4)CC3)n2cn1 | 0 | 0 | 0 | – | – | – | – | –
Cc1cc2ncc(CN3CCN(c4ccc(Cl)c(Cl)c4)CC3)n2c(C)n1 | 0 | 0 | 0 | – | – | – | – | –
Cc1cc2ncc(CN3CCN(c4ccccn4)CC3)n2c(C)n1 | 0 | 0 | 0 | – | – | – | – | –
